Measured values: patent US9187413B2, “Peripherally restricted FAAH inhibitors” (The Regents of the University of California, priority 2010, dated 2015)

Key:
[1] = Tissue distribution of URB937 by LC/MS; assay type: in vivo; conditions: mice, 1 mg-kg^-1, i.p.
Protocol: Tissue analyses. We performed tissue extractions and liquid chromatography/mass spectrometry analyses of endocannabinoids as described^38. Similar procedures were utilized for the tissue extraction and LC/MS quantification of URB937, as detailed further below.
Tissue extractions Mice were sacrificed with isoflurane and tissues were collected and immediately frozen in liquid nitrogen. Frozen tissues were weighed and homogenized in methanol (1 mL) containing [^2H4]-anandamide, [^2H4]-PEA, [^2H8]-2-AG, and N-cyclohexyl biphenyl-3-ylacetamide as internal standards. Analytes were extracted with chloroform (2 vol) and washed with water (1 vol). Organic phases were collected and dried under nitrogen. The non-fractionated organic extract was used for quantification of URB937. For other analyses the organic extract was fractionated by open-bed silica gel column chromatography, as described^43. Briefly, the extract was dissolved in chloroform and loaded onto small glass columns packed with Silica Gel G (60˜A 230-400 Mesh ASTM; Whatman, Clifton, N.J.). […]
Mobile phase A consisted of methanol containing 0.25% acetic acid, 5 mM ammonium acetate; mobile phase B consisted of water containing 0.25% acetic acid, 5 mM ammonium acetate. […] Na^+ adducts ([M+Na^+]) of analytes and internal standards were monitored in the selective ion-monitoring mode. Limit of quantification was 0.4 pmol.

FAAH = FAAH (Mus musculus (Mouse), UniProt O08914); test: Tissue levels of anandamide, PEA and 2-AG by LC/MS; assay type: in vivo; conditions: mice, 1 mg-kg^-1, i.p.
Protocol: Tissue extractions Mice were sacrificed with isoflurane and tissues were collected and immediately frozen in liquid nitrogen. Frozen tissues were weighed and homogenized in methanol (1 mL) containing [^2H4]-anandamide, [^2H4]-PEA, [^2H8]-2-AG, and N-cyclohexyl biphenyl-3-ylacetamide as internal standards. Analytes were extracted with chloroform (2 vol) and washed with water (1 vol). Organic phases were collected and dried under nitrogen. […] For other analyses the organic extract was fractionated by open-bed silica gel column chromatography, as described^43. Briefly, the extract was dissolved in chloroform and loaded onto small glass columns packed with Silica Gel G (60˜A 230-400 Mesh ASTM; Whatman, Clifton, N.J.). Anandamide, PEA and 2-AG were eluted with chloroform/methanol (9:1, vol/vol).
Mobile phase A consisted of methanol containing 0.25% acetic acid, 5 mM ammonium acetate; mobile phase B consisted of water containing 0.25% acetic acid, 5 mM ammonium acetate. […] Column temperature was kept at 40° C. […] Limit of quantification was 0.4 pmol.

[2] = Drug distribution coefficient n-octanol/buffer pH 7.4; assay type: physicochemical; conditions: n-octanol / aqueous buffer pH 7.4, 25±1° C., mean±sem, n=3; read-out: distribution coefficient, Log Doct,pH7.4
Protocol: Drug distribution coefficients. We determined Log D7.4,oct values at room temperature (25±1° C.) partitioning the solutes between n-octanol and an aqueous solution buffered at pH 7.4^36.

sciatic nerve ligation = test: Sciatic nerve ligation pain behavior; assay type: in vivo; conditions: mice
Text: Surgery. We performed sciatic nerve ligations in male Swiss mice, as previously described for rats^24 with minor modifications^39.
Behavioral tests. We measured nocifensive responses elicited by i.p. injection of acetic acid in male Swiss and C57B1/6 (wild-type or FAAH-deficient) mice^40, intraplantar injection of carrageenan in male Swiss mice^20, intraplantar injection of formalin in male Sprague-Dawley rats^41, and sciatic nerve ligation in male Swiss mice^39.
Surgeries All surgeries were conducted under aseptical conditions. Implantation of cannulae for intracerebroventricular (i.c.v.) drug administration. SD rats were anesthesized using a mixture of ketamine (70 mg-kg^−1, i.p.) and xylazine (9.33 mg-kg^−1, i.p.). They were placed in a stereotaxic frame and stabilized by ear bars (David Kopf Instruments, Tujunga, Calif., USA) with the incisor bar set 2.4 mm below the horizontal plane. A 22-gauge stainless-steel guide cannula was implanted into the right lateral cerebral ventricle 7 days prior to experiments. Coordinates for implantation (−0.9 mm antero/posterior and −1.5 mm medio/lateral relative to bregma, and 3.8 mm below the surface of the skull) were determined using the Paxinos and Watson rat brain atlas^45. Guide cannulae were anchored to the skull with 3 stainless-steel screws and dental cement, and were kept patent until injection by insertion of a dummy stylet. […]
Behavioral tests Acetic acid-induced writhing was measured in Swiss mice or C57B1/6 mice (wild-type and FAAH-deficient), as described^40 with minor modifications. […] Abdominal stretches (extension of body and hind limbs) were counted for 20 min, starting 5 min after acetic acid injection. […] Behavior was scored by an observer blinded to the treatment conditions. Formalin-induced nociception was assessed in Sprague-Dawley rats, as described^41. […]

[3] = tested on: blood-brain barrier transporters; test: Co-administration of inhibitors of blood-brain barrier transporters with URB937; assay type: in vivo; conditions: rats, URB937 25 mg-kg^-1 i.p.
[4] = single dose 1 mg-kg^-1, i.p., 2 h before testing, one week after surgery, operated paws

Chain of FAAH (O08914 whole entry): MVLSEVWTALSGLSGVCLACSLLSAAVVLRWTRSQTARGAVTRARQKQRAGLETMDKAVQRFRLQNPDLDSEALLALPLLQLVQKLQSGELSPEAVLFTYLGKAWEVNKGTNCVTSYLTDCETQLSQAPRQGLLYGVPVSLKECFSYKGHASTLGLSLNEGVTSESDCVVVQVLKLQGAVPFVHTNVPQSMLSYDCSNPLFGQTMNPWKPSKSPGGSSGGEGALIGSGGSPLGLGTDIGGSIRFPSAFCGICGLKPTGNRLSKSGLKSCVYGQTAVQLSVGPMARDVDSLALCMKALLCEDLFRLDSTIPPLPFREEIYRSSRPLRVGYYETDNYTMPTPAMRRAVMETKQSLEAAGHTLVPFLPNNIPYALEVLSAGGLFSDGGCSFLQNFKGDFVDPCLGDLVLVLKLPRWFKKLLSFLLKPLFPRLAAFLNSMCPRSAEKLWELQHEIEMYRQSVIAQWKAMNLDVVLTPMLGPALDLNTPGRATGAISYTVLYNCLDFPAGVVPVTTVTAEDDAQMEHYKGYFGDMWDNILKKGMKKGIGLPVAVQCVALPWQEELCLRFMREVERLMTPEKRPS

NC(=O)c1cccc(-c2cc(OC(=O)NC3CCCCC3)ccc2O)c1 [Compound 1b, cyclohexylcarbamic acid 3′-carbamoyl-6-hydroxybiphenyl-3-yl ester]
URB937 level in brain tissue after systemic administration [1]: undetectable | anandamide levels (FAAH): increased anandamide levels in the periphery, not in forebrain or hypothalamus | tissue levels of 2-AG in vivo (FAAH): did not alter | logD [2]: 3.03 ± 0.01 | antinociceptive effect of repeated injections after sciatic nerve ligation (sciatic nerve ligation; 1 mg-kg^-1, i.p., once daily for 4 days, starting 3 days after ligation): undistinguishable from that caused by single drug dosing | mechanical hyperalgesia and mechanical allodynia after sciatic nerve ligation (sciatic nerve ligation; [4]): suppressed mechanical hyperalgesia and mechanical allodynia | thermal hyperalgesia after sciatic nerve ligation (sciatic nerve ligation; [4]): attenuated thermal hyperalgesia | access of URB937 to the brain with Ko-143 ([3]; co-administration of BCRP inhibitor Ko-143): dose-dependent increase | access of URB937 to the brain with verapamil or probenecid ([3]; co-administration of verapamil or probenecid): no such effect
